This is an account of results in patent publication US20230000842A1, “METHODS OF TREATING CARTILAGE DISORDERS THROUGH INHIBITION OF CLK AND DYRK” (SAMUMED, LLC, priority 2019, published 2023).

One test has as its target CLK2 kinase (Homo sapiens, UniProt P49760). As to the kind of experiment: CLK2 kinase activity assay (Z-lyte FRET).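 Also: FRET read-out as coumarin to fluorescein emission ratio, unphosphorylated peptide as 0% and phosphorylated peptide as 100% controls, duplicate reactions, non-linear regression fit of dose-response curves.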 Particulars: Z-lyte Ser/Thr 6 peptide, 60 μM ATP, 1 h at room temperature. It counts as biochemical.
For a further test, the target named is CLK3 kinase (Homo sapiens, UniProt P49761). Nature of the test: CLK3 kinase activity assay (Z-lyte FRET).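 Also: kinase activity read as coumarin/fluorescein emission ratio by FRET, unphosphorylated peptide as 0% and phosphorylated peptide as 100% control, values from non-linear regression of dose-response curves.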 Format: biochemical. As to conditions: Z-lyte Ser/Thr 18 peptide, 156 μM ATP, 1 h at room temperature.
CLK3 kinase, sequence (P49761 whole entry): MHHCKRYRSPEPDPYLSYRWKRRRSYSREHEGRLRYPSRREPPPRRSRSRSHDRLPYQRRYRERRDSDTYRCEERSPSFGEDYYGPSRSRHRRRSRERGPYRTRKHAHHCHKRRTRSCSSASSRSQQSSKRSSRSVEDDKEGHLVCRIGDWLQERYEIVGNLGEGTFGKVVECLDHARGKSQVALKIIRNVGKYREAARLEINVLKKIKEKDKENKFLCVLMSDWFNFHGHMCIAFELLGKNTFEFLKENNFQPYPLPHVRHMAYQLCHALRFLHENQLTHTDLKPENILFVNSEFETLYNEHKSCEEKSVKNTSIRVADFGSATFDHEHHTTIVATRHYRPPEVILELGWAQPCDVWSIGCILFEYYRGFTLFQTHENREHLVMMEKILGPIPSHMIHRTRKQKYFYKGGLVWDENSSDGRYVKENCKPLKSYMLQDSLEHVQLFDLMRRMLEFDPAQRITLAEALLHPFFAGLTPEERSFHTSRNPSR
In test [1] the test system is primary human mesenchymal stem cells (hMSCs). As to the kind of experiment: Chondrogenesis screening using primary human mesenchymal stem cells. It counts as cell-based. Particulars: Homo sapiens, Mesenchymal stem cells, hMSC chondrogenesis; for Emax: maximum activity relative to TGF-β3 (10 ng/mL) positive control, read-out: Max. Activity as % TGF-β3 activity; for EC50: concentration required to induce 50% levels of chondrogenesis with TGF-β3 as positive control, read-out: Conc (nM) of 50% TGF-β3 activity. In short, it runs like this: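 Derived values are EC50 for 50% chondrogenesis, maximal activity and the dose giving it. These come from nodule area in passage 3–6 primary hMSCs, expressed as fold change over the mean of 3 same-plate DMSO wells, 2–3 replicates per concentration. TGF-β3 served as positive control.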

The test system of test [2] is Wnt pathway activity (SW480 colon carcinoma cells stably expressing the Sp5-Luc reporter). Nature of the test: Wnt pathway activity screening assay (Sp5-Luc reporter gene assay). As to conditions: Homo sapiens, SW480, Table 4; SW480 cells stably expressing Sp5-Luc reporter, 10-point dose-response from 10 μM, 36 to 48 hours. (In a reporter assay the amount or activity of a reporter protein is the signal.)

SMILES strings stand for the structures.

CLK2 kinase, sequence (P49760 whole entry): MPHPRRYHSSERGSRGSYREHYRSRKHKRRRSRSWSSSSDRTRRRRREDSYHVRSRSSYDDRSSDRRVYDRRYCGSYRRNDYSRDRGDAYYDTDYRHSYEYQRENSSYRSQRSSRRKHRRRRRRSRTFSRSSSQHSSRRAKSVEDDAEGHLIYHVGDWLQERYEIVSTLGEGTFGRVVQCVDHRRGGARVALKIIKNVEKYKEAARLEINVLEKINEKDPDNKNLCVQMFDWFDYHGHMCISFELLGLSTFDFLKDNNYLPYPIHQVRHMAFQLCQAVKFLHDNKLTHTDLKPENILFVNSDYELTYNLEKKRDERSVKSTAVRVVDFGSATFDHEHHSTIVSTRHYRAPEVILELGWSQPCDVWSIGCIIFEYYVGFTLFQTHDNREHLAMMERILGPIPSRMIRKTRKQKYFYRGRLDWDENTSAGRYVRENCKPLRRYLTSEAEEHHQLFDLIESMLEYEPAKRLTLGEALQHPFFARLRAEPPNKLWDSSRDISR

Take `CC(C)CC(=O)Nc1cncc(-c2ccc3[nH]nc(-c4nc5c(-c6cccc(F)c6)ccnc5[nH]4)c3c2)c1` [compound 124]: the values for the EC50 (at CLK2 kinase; on CLK3 kinase; in test [2]) were 37 nM, 218 nM and 1.4 nM, respectively. Further, in test [1], the Emax came out at 61%.

In the case of `CC(C)CC(=O)Nc1cncc(-c2cc3c(-c4nc5c(-c6ccoc6)cccc5[nH]4)n[nH]c3cn2)c1` [compound 233], the EC50 at CLK2 kinase was found to be 8 nM; on CLK3 kinase, 521 nM; in test [2], 55.3 nM. Also, in test [1], the Emax turned out to be 58%.

In the case of `Cc1ccc(-c2cncc3[nH]c(-c4n[nH]c5ccc(-c6cncc(N)c6)nc45)nc23)s1` [compound 276], the EC50 at CLK2 kinase came out at 2 nM; at CLK3 kinase it was 9 nM; in test [1], 30 nM; in test [2], 40.7 nM. Also, the Emax in test [1] came out at 79.4%.

In the case of `CC(C)(C)CC(=O)Nc1cncc(-c2cnc3[nH]nc(-c4cc5cnccc5[nH]4)c3c2)c1` [compound 424], the EC50 was found to be 2 nM on CLK2 kinase, 47 nM at CLK3 kinase and 605 nM in test [2]. Moreover, in test [1], the Emax came to 7.07%.

In the case of `COc1cccc(-c2cncc3[nH]c(-c4n[nH]c5ccc(-c6cccnc6)nc45)nc23)c1` [compound 296], the EC50 at CLK2 kinase was 1 nM; at CLK3 kinase, 55 nM; in test [1] it was 30 nM; in test [2], greater than 10000 nM. The Emax in test [1] is 59.2%.

As for `CC(C)CC(=O)Nc1cncc(-c2cnc3[nH]nc(-c4cc5c(-c6ccncc6)cccc5[nH]4)c3c2)c1` [compound 389], the EC50 on CLK2 kinase was 9 nM; at CLK3 kinase, 9910 nM; in test [1], 30 nM; in test [2], 711 nM. Moreover, in test [1], the Emax came out at 71.4%.

As for `O=C(Nc1cncc(-c2ccc3[nH]nc(-c4cc5cnccc5[nH]4)c3c2)c1)C1CCC1` [compound 428], the EC50 on CLK2 kinase is 2 nM; on CLK3 kinase, 19 nM; in test [2] it was 75 nM. In test [1], the Emax was 213%.

In the case of `CN(C)Cc1cncc(-c2ccc3[nH]nc(-c4nc5c(-c6cccc(F)c6)cncc5[nH]4)c3n2)c1` [compound 139], the EC50 worked out at 3 nM at CLK2 kinase, 79 nM on CLK3 kinase and 1050 nM in test [2]. For the same molecule, in test [1], the Emax was found to be 16.7%.

Consider `CN(C)Cc1cncc(-c2ccc3[nH]nc(-c4cc5c(-c6ccccc6F)cncc5[nH]4)c3n2)c1` [compound 337], for which the EC50 at CLK2 kinase came out at 2 nM; on CLK3 kinase it was 109 nM; in test [1] it was 30 nM; in test [2], 1370 nM. For the same molecule, in test [1], the Emax was 50.6%.

Regarding `CC(C)C(=O)Nc1cncc(-c2ccc3[nH]nc(-c4nc5c(-c6cccnc6)cncc5[nH]4)c3c2)c1` [compound 186], the EC50 at CLK2 kinase is 4 nM; at CLK3 kinase, 37 nM; in test [2] it was 5.1 nM. Also, in test [1], the Emax came out at 34.4%.

In the case of `CC(C)Nc1cncc(-c2ccc3[nH]nc(-c4nc5c(-c6cccnc6)cncc5[nH]4)c3n2)c1` [compound 194], the EC50 at CLK2 kinase is 2 nM; on CLK3 kinase, 213 nM; in test [1], 30 nM; in test [2], 1270 nM. Also, the Emax in test [1] is 64.6%.

For `COc1cccc(-c2nccc3[nH]c(-c4n[nH]c5ccc(-c6cccnc6)nc45)nc23)c1` [compound 295], the EC50 on CLK2 kinase turned out to be 2 nM; at CLK3 kinase it was 96 nM; in test [1], 30 nM; in test [2] it was 377 nM. The Emax in test [1] worked out at 50.6%.

Consider `CCCC(=O)Nc1cncc(-c2cnc3[nH]nc(-c4cc5c(-c6cc(F)cc(CNS(C)(=O)=O)c6)cncc5[nH]4)c3c2)c1` [compound 518], for which the EC50 at CLK2 kinase is 7 nM; at CLK3 kinase it was 39 nM; in test [2] it was 1680 nM. The Emax in test [1] was 36.7%.

On to `Cc1ccncc1-c1ccc2[nH]nc(-c3cc4ccncc4[nH]3)c2c1` [compound 415], for which the figures for the EC50 (on CLK2 kinase; on CLK3 kinase; in test [2]) were 1 nM, 31 nM and 191 nM, respectively. In addition, the Emax in test [1] was determined as 161%.

`CC(C)CC(=O)Nc1cncc(-c2cnc3[nH]nc(-c4cc5c(-c6cc(F)cc(CNS(C)(=O)=O)c6)nccc5[nH]4)c3c2)c1` [compound 522]: the EC50 on CLK2 kinase was determined as 8 nM; on CLK3 kinase, 48 nM; in test [1], 300 nM; in test [2] it was 1510 nM. In test [1], the Emax amounted to 52%.

Consider `Nc1cncc(-c2cnc3[nH]nc(-c4cc5c(-c6ccccc6F)ccnc5[nH]4)c3c2)c1` [compound 322], for which the values for the EC50 (at CLK2 kinase; at CLK3 kinase; in test [2]) were 6 nM, 66 nM and 745 nM, respectively. Moreover, the Emax in test [1] came out at 27.6%.

Consider `CN1CCN(c2cccc3[nH]c(-c4n[nH]c5ccc(-c6cncc(CN7CCCCC7)c6)cc45)cc23)CC1` [compound 493], for which the EC50 amounted to 6 nM at CLK2 kinase, 912 nM on CLK3 kinase, 100 nM in test [1] and 4970 nM in test [2]. Further, the Emax in test [1] worked out at 198%.

Take `CS(=O)(=O)NCc1cc(F)cc(-c2nccc3[nH]c(-c4n[nH]c5ncc(-c6cncc(OCc7ccccc7)c6)cc45)cc23)c1` [compound 537]: the EC50 at CLK2 kinase is 13 nM; at CLK3 kinase, 329 nM; in test [2], 3990 nM. In addition, the Emax in test [1] was 20.6%.

As to `Nc1cncc(-c2ccc3[nH]nc(-c4cc5c(-c6ccccn6)ccnc5[nH]4)c3c2)c1` [compound 407], the EC50 at CLK2 kinase stood at 3 nM; at CLK3 kinase, 19 nM; in test [2] it was 22.4 nM. Also, the Emax in test [1] was found to be 46.1%.

Consider `Nc1cncc(-c2ccc3[nH]nc(-c4cc5c(-c6ccncc6)ccnc5[nH]4)c3n2)c1` [compound 382], for which the EC50 at CLK2 kinase was 4 nM; on CLK3 kinase, 63 nM; in test [2] it was greater than 10000 nM. Moreover, in test [1], the Emax is 26.9%.

On to `c1cncc(-c2ccc3[nH]nc(-c4cc5c(-c6cccnc6)ccnc5[nH]4)c3c2)c1` [compound 342], for which the figures for the EC50 (at CLK2 kinase; at CLK3 kinase; in test [2]) were 4 nM, 90 nM and greater than 10000 nM, respectively. Besides, in test [1], the Emax is 16.7%.

As for `CN(C)Cc1cncc(-c2ccc3[nH]nc(-c4cc5c(N6CCCCC6)cccc5[nH]4)c3c2)c1` [compound 464], the EC50 came to 13 nM at CLK2 kinase, 3660 nM at CLK3 kinase, 10 nM in test [1] and 575 nM in test [2]. Further, the Emax in test [1] stood at 205%.

As to `c1cnc2[nH]c(-c3n[nH]c4ccc(-c5cncc(CN6CCCCC6)c5)cc34)cc2c1` [compound 450], the EC50 at CLK2 kinase was 3 nM; at CLK3 kinase, 85 nM; in test [2], 1670 nM. In test [1], the Emax came to 50.8%.

As to `Oc1cncc(-c2ccc3[nH]nc(-c4nc5c(-c6cccc(F)c6)ccnc5[nH]4)c3n2)c1` [compound 146], the EC50 on CLK2 kinase came out at 5 nM; on CLK3 kinase it was 113 nM; in test [1], 2.29 nM; in test [2] it was 375 nM. In addition, the Emax in test [1] is 59.3%.

For `c1cncc(-c2cc3c(-c4nc5ccccc5[nH]4)n[nH]c3cn2)c1` [compound 200], the EC50 came to 22 nM at CLK2 kinase, 209 nM on CLK3 kinase, 30 nM in test [1] and 20.1 nM in test [2]. Further, the Emax in test [1] amounted to 80.5%.

As to `c1cncc(-c2cc3c(-c4cc5cccnc5[nH]4)n[nH]c3cn2)c1` [compound 413], the EC50 on CLK2 kinase was 4 nM; on CLK3 kinase, 5490 nM; in test [2], greater than 10000 nM. In addition, the Emax in test [1] is 27.6%.

Turning to `CN1CCN(c2ccnc3[nH]c(-c4n[nH]c5ccc(-c6cncc(N)c6)nc45)nc23)CC1` [compound 216], the EC50 on CLK2 kinase was 2 nM; at CLK3 kinase, 843 nM; in test [2], greater than 10000 nM. Moreover, the Emax in test [1] amounted to 46.9%.

Turning to `CC(C)Nc1cncc(-c2ccc3[nH]nc(-c4cc5c(-c6cccnc6)ccnc5[nH]4)c3n2)c1` [compound 364], the EC50 at CLK2 kinase came out at 10 nM; at CLK3 kinase it was 139 nM; in test [2], 255 nM. The Emax in test [1] amounted to 47.2%.

Take `Nc1cncc(-c2ccc3[nH]nc(-c4cc5c(-c6ccncc6)nccc5[nH]4)c3c2)c1` [compound 377]: the EC50 on CLK2 kinase was found to be 7 nM; on CLK3 kinase, 113 nM; in test [2], 658 nM. Besides, in test [1], the Emax amounted to 76.8%.

For `c1ncc(-c2ccc3[nH]nc(-c4cc5c(-c6ccoc6)nccc5[nH]4)c3c2)cn1` [compound 505], the EC50 worked out at 4 nM at CLK2 kinase, 217 nM on CLK3 kinase and 1910 nM in test [2]. Further, in test [1], the Emax was determined as 40.2%.

For `CN1CCN(c2nccc3[nH]c(-c4n[nH]c5ccc(-c6cncc(NC(=O)c7ccccc7)c6)cc45)cc23)CC1` [compound 486], the EC50 at CLK2 kinase was 6 nM; on CLK3 kinase, 291 nM; in test [2], 2140 nM. The Emax in test [1] was 34.6%.

Turning to `CCNCc1cncc(-c2ccc3[nH]nc(-c4nc5c(-c6cc(F)cc(NCCN(C)C)c6)ccnc5[nH]4)c3n2)c1` [compound 286], the EC50 on CLK2 kinase was 3 nM; at CLK3 kinase, 82 nM; in test [1] it was 20.6 nM; in test [2], greater than 10000 nM. In addition, the Emax in test [1] came out at 149%.
